Test results reported in PubChem BioAssay AID330 (DTP/NCI, 2004).
Toxic doses and inconclusive results are not listed. Rule for the calls: active = survival T/C of 150% or more; inactive = T/C below 125% in these data.

System: P388 leukemia ip, CD2F1 mice, survival T/C
Assay: NCI In Vivo Anticancer Drug Screen. Data for tumor model P388 Leukemia (intraperitoneal) in CD2F1 (CDF1) mice
Details: endpoint: median survival time, higher = longer survival
Procedure, shortened: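 Mice carrying the transplanted tumor received test compound or vehicle. Survival was recorded in each group, and the value is the treated-group measurement divided by that of the vehicle-treated control group.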

Measured: T/C

NC(CS)C(=O)NCC(=O)O (stereo unspecified)
inactive: dose: 50.0 mg/kg/injection, schedule: Q01DX009 (ip), vehicle: distilled water + alcohol 109 % of control | dose: 100.0 mg/kg/injection, schedule: Q01DX009 (ip), vehicle: distilled water + alcohol 98 % of control | dose: 200.0 mg/kg/injection, schedule: Q01DX009 (ip), vehicle: distilled water + alcohol 92 % of control

Cc1[nH]c(C(=O)O)cc(=O)c1C
inactive: dose: 25.0 mg/kg/injection, schedule: Q01DX009 (ip), vehicle: other 103 % of control | dose: 50.0 mg/kg/injection, schedule: Q01DX009 (ip), vehicle: other 103 % of control | dose: 100.0 mg/kg/injection, schedule: Q01DX009 (ip), vehicle: other 101 % of control | dose: 200.0 mg/kg/injection, schedule: Q01DX009 (ip), vehicle: other 99 % of control | dose: 400.0 mg/kg/injection, schedule: Q01DX009 (ip), vehicle: other 97 % of control

O=S1(=O)CCC(N(/N=C/c2ccco2)c2ccccc2)C1 (stereo unspecified)
inactive: dose: 50.0 mg/kg/injection, schedule: Q01DX005 (ip), vehicle: saline with Tween-80 95 % of control | dose: 100.0 mg/kg/injection, schedule: Q01DX005 (ip), vehicle: saline with Tween-80 101 % of control | dose: 200.0 mg/kg/injection, schedule: Q01DX005 (ip), vehicle: saline with Tween-80 101 % of control
